In series [1] the test system is D5 IgG binding to 5-helix (recombinant gp41 mimetic). Put plainly: D5/5-Helix Competitive Binding Assay (DCBA), peptide constructs. The following applies: for IC50: competition for D5 binding to 5-helix, FRET. As for the experimental part: An in vitro binding assay based on fluorescence resonance energy transfer (FRET) was performed as previously described in Caulfield et al., 2010, J Biol Chem 285:40604-40611. Briefly, the assay uses D5 IgG (see U.S. Pat. No. 7,744,887) conjugated to europium cryptate (Eu-D5) and a biotinylated derivative of the recombinant gp41 mimetic 5-helix (5H). Biotin-5H binds to a streptavidin-conjugated allophycocyanin (APC) substrate to form a 5H-SA-APC complex. Binding of Eu-D5 to 5H results in FRET from Eu to APC. When the reaction system is excited at a wavelength of 340 nm, the amount of bound Eu-D5 is measured at the emission wavelength of 665 nm, and total Eu is measured at the emission wavelength of 620 nm. Data are reported as 10000× the ratio of signal at 665 nm to signal at 620 nm. Agents that bind competitively to either component cause a decrease in the ratio value.

Series [2] in a line: Circular dichroism (secondary structure, thermal stability). In kind it is physicochemical. The note with it: pH 4, 20° C. Background: Circular dichroism is the unequal absorption of left and right circularly polarised light.
Another series deals with HXB2. In kind it is cell-based, HIV-1. The following applies: HeLa P4R5 cells, virus HXB2; read-out: p4/2R5 IC50 HXB2. The source says: (§1) A number of different experimental methods can be used to determine whether or not a gp41 peptide mimetic can form a stable, faithful mimetic of said internal coiled-coil. For example, an assay designed to measure the ability of the conformationally constrained gp41 peptide mimetics to inhibit infectivity of HIV particles can be performed. In one such assay, HeLa cells stably expressing human CD4 and CCR5 receptors and harboring a β-galactosidase reporter gene driven by a tat-responsive fragment of HIV-2 LTR are infected with HIV-1 of various strains in the presence of gp41 peptide mimetics at varying concentrations. After incubating said cells for a specific period of time, the cells are lysed and β-galactosidase activity is quantified.
(§2) This neutralization assay was performed as previously described in Joyce et al., 2002, J Biol Chem 277:45811-45820 with the following modifications: HeLa P4R5 cells were seeded at 1000 cells/well in a 384-well plate and infected the following day with the appropriate HIV-1 or SHIV virus at a multiplicity of infection of approximately 0.01 in the presence of serial dilutions of immune sera or fractionated IgG 48 hours post infection, and cells were lysed and β-galactosidase activity was measured using a chemiluminescent substrate (GalScreen®, Applied Biosystems™, Life Technologies Corp., Carlsbad, Calif.). For analysis of purified IgG, the data are expressed as IC50, defined as the IgG concentration resulting in 50% reduction of chemiluminescence signal. For analysis of sera, the IC50 is defined as the reciprocal serum dilution resulting in 50% reduced chemiluminescence signal.

In a further series the test system is viral strain V570A. Format: cell-based, HIV-1. The following applies: HeLa P4R5 cells, virus V570A; read-out: p4/2R5 IC50 V570A.
Excerpt: as §1, §2

Series [3] is described as follows: Analytical ultracentrifugation (oligomeric state). In kind it is physicochemical. The note with it: for AUC Ratio (observed to predicted Mw): AUC condition a: 25 mM Na Acetate, 0.15M NaCl, pH 4; for self-association from AUC ratio of observed to predicted molecular weight: monomeric peptides. As for the experimental part:
All analytical ultracentrifugation (AU) experiments were performed with a XL-I analytical ultracentrifuge (Beckman Coulter, Inc., Indianopolis, Ind.) at 20° C. For sedimentation velocity analysis, the samples were centrifuged at 48,000 rpm at 20° C. for 5 hours, with radial absorbance scans taken approximately every 4 minutes. g*(s) analysis was performed with the program DCDT+, version 2.2.1 (John Philo, Thousand Oaks, Calif.) or the Optima XL-I data analysis software (Beckman Coulter, Inc.). Sedimentation equilibrium experiments were conducted at three different loading concentrations and three different rotor speeds (16,000, 20,000, and 30,000). Molecular masses were calculated using the Optima XL-I data analysis software or using Heteroanalysis version 1.1.33 (from the Analytical Ultracentrifugation Facility, Biotechnology and Bioservices Center of the University of Connecticut).

In series [4] the target is gp41 of HIV-1 virus HXB2 (HIV-1 isolate HXB2) (UniProt P04578). Put plainly: cell-based or functional assay.
Series [5] concerns the target gp41 of HIV-1 virus V570A (HIV-1 isolate HXB2) (UniProt P04578). The series can be described thus: cell-based or functional assay.
Series [6] concerns the molecule itself. The series can be described thus: analytical ultracentrifugation (ratio of observed to predicted molecular weight); self-association.
The target in series [7] is gp41 of HIV-1 virus V570A (HIV-1 isolate HXB2, UniProt P04578 512-856). The series can be described thus: cell-based or functional assay.
The next series concerns the target gp41 of HIV-1 virus HXB2 (HIV-1 isolate HXB2, UniProt P04578 512-856). Put plainly: cell-based or functional assay.
[8] abbreviates: CD condition a: 50 mM Na Acetate, 0.15M NaCl.

Here are results for seven molecules from patent publication US20150071954A1, “STABLE PEPTIDE MIMETICS OF THE HIV-1 GP41 PRE-HAIRPIN INTERMEDIATE” (priority 2012, published 2015).

No end group written: not given here.

With “Ac-QARQLLSGIVQQQNNLLRAIEAQQHALQLTVWGIKQLQARILAVERYLKDQ-NH2 (N-terminus assumed) [Peptide N51-3B]”, in series [1], the “effect of mutations on D5 binding in DCBA” value is “apparent negative impact” and the IC50 is > 0.3 µM. Further, in series [2] (setting [8]), the “CD % (-helix)” value amounted to 105%. Besides, the IC50 in the series with HXB2 stood at 0.107 µM. In the series with viral strain V570A, the IC50 came to 0.0493 µM. Besides, in series [3], the “AUC Ratio (observed to predicted Mw)” value is recorded as 3.3 and the “self-association from AUC ratio of observed to predicted molecular weight” value is listed as “strong preference for self-association”.

Turning to “Ac-QIRELISKIVEQINNILRAIEAQQHALQLTVWGIKQLQARILAVERYLKDQ-NH2 (N-terminus assumed) [Peptide N51-2B]”, in series [1], the “effect of mutations on D5 binding in DCBA” value is listed as “apparent negative impact” and the IC50 was > 0.3 µM. In addition, the “CD % (-helix)” value in [2] (setting [8]) is reported as 97%. In addition, in the series on HXB2, the IC50 came to 0.0609 µM. Also, the IC50 with viral strain V570A is 0.0334 µM. Also, in series [3], the “AUC Ratio (observed to predicted Mw)” value was 3.6 and the “self-association from AUC ratio of observed to predicted molecular weight” value is on record as “strong preference for self-association”.

Take D5 IgG (antibody): in series [4], the p4/2R5 IC50 (nM), HXB2 worked out at 179 nM. In series [5], this molecule gave a p4/2R5 IC50 (nM), V570A of 61.7 nM.

“KTA(N51-3B)3: three thiol tagged monomeric N51-3B peptides ligated on trivalent bromide scaffold KTA-Br (QARQLLSGIVQQQNNLLRAIEAQQHALQLTVWGIKQLQARILAVERYLKDQ-NH2; not fully specified (N-terminus); also: trimer: three S-acetylglycolic thiol-tagged N51-3B ligated on trivalent bromide scaffold KTA-Br)”: the IC50 in [1] was determined as 0.0384 µM. In addition, the “CD % (-helix)” value in [2] (CD condition c: 25 mM Na Acetate) amounted to 88%. In addition, the “AUC Observed Mw: precipitation” value in series [3] (pH 7) was “ppt (pH 7)”.

B1: N51-3B (L′584) (peptide)
peptide: QARQLLSGIVQQQNNLLRAIEAQQHALQLTVWGIKQLQARILAVERYLKDQ
notes: Monomeric synthetic peptide
Consider B1, for which the binding result in [6] is on record as “binds”. Besides, the “p4/2R5 IC50 (nM), V570A” value in series [7] was found to be 49.3 nM. For the same molecule, the “p4/2R5 IC50 (nM), HXB2” value in the series with gp41 of HIV-1 virus HXB2 came out at 107 nM.

B2: KTA(N51-3B)3 (L′510) (peptide)
peptide: QARQLLSGIVQQQNNLLRAIEAQQHALQLTVWGIKQLQARILAVERYLKDQ
modifications: not fully specified (N-terminus); also: covalent trimer of three N51-3B peptides on Kemp's triacid scaffold
In the case of B2, the “p4/2R5 IC50 (nM), V570A” value in [7] came out at 29.1 nM. Also, in the series with gp41 of HIV-1 virus HXB2, the “p4/2R5 IC50 (nM), HXB2” value came to 79.4 nM.

B3: N51-2B (L′583) (peptide)
peptide: QIRELISKIVEQINNILRAIEAQQHALQLTVWGIKQLQARILAVERYLKDQ
modifications: not fully specified (C-terminus)
notes: Monomeric synthetic peptide made on Rink amide resin; Self-associates in solution
Take B3: the binding result in series [6] is given as “binds”. Further, the “p4/2R5 IC50 (nM), V570A” value in series [7] worked out at 33.4 nM. The “p4/2R5 IC50 (nM), HXB2” value with gp41 of HIV-1 virus HXB2 was determined as 60.9 nM.
